Results as given in patent US20220193180A1, “AGING PROGRESSION SUPPRESSING AGENT, AND FOOD OR BEVERAGE PRODUCT COMPRISING SAME” (NITTA GELATIN INC., priority 2019, published 2022).
Where no end group is shown, it is not given here. [ ]: non-standard residue; d: D form. Hyp = O=C(O)[C@@H]1C[C@@H](O)CN1

What was measured:
type 17 collagen gene = test: Gene expression test: mRNA level of type 17 collagen gene in epidermal cells (RT-PCR, corrected with GAPDH); format: cell-based, human; parameters: key to Assessment (promoting action on type 17 collagen gene expression): samples with “++” were determined to have a significance in the promoting action on expression of the gene; In samples with “+”, the gene expression increase rate (%) exceeded 100; Samples with “−” were determined to have no significance in the promoting action on expression of the gene; settings: NHEK cells; for Assessment (promoting action on type 17 collagen gene expression) / Gene expression increase rate (type 17 collagen gene): 1 mM final concentration, 72 hours; for Gene expression increase rate (type 17 collagen gene): control = 100
Protocol: (§1) First, normal human epidermal keratinocytes NHEK (NB) (manufactured by KURABO INDUSTRIES LTD.) were obtained as epidermal cells. The cells were seeded in a necessary number of commercially available dishes of ϕ60 mm at 1.25×10^4 cells per dish (5 mL of a cell dispersion liquid having a concentration of 0.25×10^4 cells/mL), and cultured in a serum-free medium (trade name: “HuMedia KG-2”, manufactured by KURABO INDUSTRIES LTD.) for 2 days. Then, the cells were confirmed to be subconfluent in the dishes, and the medium in the dishes was then replaced by a basal medium (trade name: “HuMedia KB-2”, manufactured by KURABO INDUSTRIES LTD.). In this way, epidermal cells for evaluating the mRNA level of the type 17 collagen gene and the mRNA level of the glutathione synthetase gene were prepared.
(§2) To the basal medium in the dishes, the peptide or the collagen peptide mixture was added to the concentrations shown in Tables 1 to 4, and the cells were cultured at 37° C. in an atmosphere at a carbon dioxide concentration of 5 vol % for 72 hours to prepare samples to be subjected to a gene expression test. In addition, a control sample obtained by adding only ion-exchanged water to the basal medium in the dish (hereinafter, also referred to as “Blank”) was prepared. This control sample was also cultured at 37° C. in an atmosphere at a carbon dioxide concentration of 5 vol % for 72 hours.
Next, by using a RNA extraction kit (trade name: “TRIzol (registered trademark) Reagent, manufactured by Life Technologies Japan Ltd.) in accordance with the protocol accompanying the kit, total RNA was extracted from the epidermal cells in the dish to obtain an extract containing total RNA for each sample. Subsequently, by using a cDNA preparation kit (trade name (product number): “High Capacity RNA-to-cDNA Kit (4387406)”, manufactured by Life Technologies Japan Ltd.) in accordance with the protocol accompanying the kit, reverse transcription was performed on RNA in the extract to obtain cDNA from the RNA in the extract. Further, real-time (RT)-PCR was performed on the cDNA by a DNA amplifying apparatus (trade name: “Step One Plus (TM) Real-Time PCR System”, manufactured by Applied Biosystems Inc.).
In the RT-PCR, the mRNA levels of type 17 collagen (manufactured by Life Technologies Japan Ltd., primer: Hs009900361_ml) as a target gene and glutathione synthetase (GSS, manufactured by Life Technologies Japan Ltd., primer: Hs01547656_ml) were measured. As an internal standard (correction gene), GAPDH was selected. For calculation of the mRNA level, a calibrated curve method was used. As the primer and the probe for the RT-PCR, those accompanying a reagent kit (trade name: “TaqMan (registered trademark) Gene Expression Assays, manufactured by Applied Biosystems Inc.) were used.
First, in the samples and the control sample, the mRNA levels (gene expression levels) of the two target genes (type 17 collagen and glutathione synthetase) were each calculated. Next, the mRNA levels of the two target genes were corrected with the mRNA level of GAPDH as a correction gene to obtain correction values in the samples and the control sample. Specifically, values obtained by dividing the mRNA levels of the two target genes by the mRNA level of GAPDH (relative values) were each determined.
Then, the ratio of the correction value obtained in each sample to the correction value in the control sample, which was defined as 100, was determined (gene expression increase rate (%)).
Further, the gene expression increase rate (%) was subjected to statistical processing to evaluate significance of the promoting action on gene expression of the type 17 collagen gene and the glutathione synthetase gene in each sample. […]

[1] = test system: glutathione synthetase gene; test: Gene expression test: mRNA level of glutathione synthetase gene in epidermal cells (RT-PCR, corrected with GAPDH); format: cell-based, human; settings: NHEK cells, 1 mM final concentration, 72 hours; for Gene expression increase rate (glutathione synthetase gene): control = 100
Protocol: as §1, §2
Next, by using a RNA extraction kit (trade name: “TRIzol (registered trademark) Reagent, manufactured by Life Technologies Japan Ltd.) in accordance with the protocol accompanying the kit, total RNA was extracted from the epidermal cells in the dish to obtain an extract containing total RNA for each sample. Subsequently, by using a cDNA preparation kit (trade name (product number): “High Capacity RNA-to-cDNA Kit (4387406)”, manufactured by Life Technologies Japan Ltd.) in accordance with the protocol accompanying the kit, reverse transcription was performed on RNA in the extract to obtain cDNA from the RNA in the extract. […]
In the RT-PCR, the mRNA levels of type 17 collagen (manufactured by Life Technologies Japan Ltd., primer: Hs009900361_ml) as a target gene and glutathione synthetase (GSS, manufactured by Life Technologies Japan Ltd., primer: Hs01547656_ml) were measured. […]
First, in the samples and the control sample, the mRNA levels (gene expression levels) of the two target genes (type 17 collagen and glutathione synthetase) were each calculated. […] Specifically, values obtained by dividing the mRNA levels of the two target genes by the mRNA level of GAPDH (relative values) were each determined.
Then, the ratio of the correction value obtained in each sample to the correction value in the control sample, which was defined as 100, was determined (gene expression increase rate (%)). […]

Substance	Assessment (promoting action on type 17 collagen gene expression) (type 17 collagen gene)	Gene expression increase rate (type 17 collagen gene) (type 17 collagen gene) [%]	promoting action on type 17 collagen gene expression (in words) (type 17 collagen gene; discussion of Table 1)	Assessment (promoting action on glutathione synthetase gene expression) [1]	Gene expression increase rate (glutathione synthetase gene) [1] [%]
Glu-Hyp [EO, reference compound]	−	100 ± 6.46	did not exhibit an evident promoting action		
Glu-[Hyp]-Gly [EOG]	+ (In samples with “+”, the gene expression increase rate (%) exceeded 100)	144 ± 17.01		+ (In samples with “+”, the gene expression increase rate (%) exceeded 100)	131 ± 10
Gly-Pro [GP]	++	201 ± 8.42		+ (In samples with “+”, the gene expression increase rate (%) exceeded 100)	106 ± 2
